Data taken from patent US10106504B2, “Pyridin-3-yl acetic acid derivatives as inhibitors of human immunodeficiency virus replication” (priority 2015, dated 2018).
Like-named read-outs stand apart in the source and are kept apart here.

Tested on: NL-RLuc virus
Assay: Inhibition of HIV replication (NL-RLuc virus, luciferase readout in MT-2 cells)
Type: cell-based
Conditions: Human immunodeficiency virus 1, MT2, 120 h
Text: Inhibition of HIV Replication:
A recombinant NL-RLuc proviral clone was constructed in which a section of the nef gene from NL4-3 was replaced with the Renilla Luciferase gene. This virus is fully infectious and can undergo multiple cycles of replication in cell culture. In addition, the luciferous reporter provides a simple and easy method for quantitating the extent of virus growth and consequently, the antiviral activity of test compounds. The plasmid pNLRLuc contains the proviral NL-Rluc DNA cloned into pUC18 at the PvuII site. The NL-RLuc virus was prepared by transfection of 293T cells with the plasmid pNLRLuc. Transfections were performed using the LipofectAMINE PLUS kit from Invitrogen (Carlsbad, Calif.) according to the manufacturer and the virus generated was titered in MT-2 cells. For susceptibility analyses, the titrated virus was used to infect MT-2 cells in the presence of compound, and after 5 days of incubation, cells were processed and quantitated for virus growth by the amount of expressed luciferase. Assay media was RPMI 1640 supplemented with 10% heat inactivated fetal bovine serum (FBS), 100 units/ml penicillin G/100 units/ml streptomycin, 10 mM HEPES buffer pH 7.55 and 2 mM L-glutamine. The results from at least 2 experiments were used to calculate the EC50 values. Luciferase was quantitated using the Dual Luciferase kit from Promega (Madison, Wis.). Susceptibility of viruses to compounds was determined by incubation in the presence of serial dilutions of the compound. The 50% effective concentration (EC50) was calculated by using the exponential form of the median effect equation where (Fa)=1/[1+(ED50/drug conc.)^m] (Johnson V A, Byington R T. Infectivity Assay. In Techniques in HIV Research. ed. Aldovini A, Walker BD. 71-76. New York: Stockton Press. 1990). Activity equal to A refers to a compound having an EC50<100 nM, while B and C denote compounds having an EC50 between 100 nM and 1 uM (B) or >1 uM (C).

Structure (SMILES)	EC50 (read-out: Activity) [µM]	EC50 (read-out: EC50 μM) [µM]
Cc1nc(C)c([C@H](OC(C)(C)C)C(=O)O)c(-c2ccc3c(c2)CCCO3)c1-c1ccc2c(c1)CCNC2 [Example 21, (S)-2-(tert-Butoxy)-2-(4-(chroman-6-yl)-2,6-dimethyl-5-(1,2,3,4-tetrahydroisoquinolin-6-yl)pyridin-3-yl)acetic acid]	> 1	7.77
Cc1nc(C)c([C@H](OC(C)(C)C)C(=O)O)c(-c2ccc3c(c2)CCCO3)c1-c1ccc2c(c1)CCN(C)C2 [Example 22, (S)-2-(tert-Butoxy)-2-(4-(chroman-6-yl)-2,6-dimethyl-5-(2-methyl-1,2,3,4-tetrahydroisoquinolin-6-yl)pyridin-3-yl)acetic acid]	0.1 to 1	0.628
Cc1nc(C)c([C@H](OC(C)(C)C)C(=O)O)c(-c2ccc3c(c2)CCCO3)c1-c1ccc2c(c1)CCN(Cc1ccccc1F)C2 [Example 23, (S)-2-(tert-Butoxy)-2-(4-(chroman-6-yl)-5-(2-(2-fluorobenzyl)-1,2,3,4-tetrahydroisoquinolin-6-yl)-2,6-dimethylpyridin-3-yl)acetic Acid]	< 0.1	
Cc1nc(C)c([C@H](OC(C)(C)C)C(=O)O)c(-c2ccc3c(c2)CCCO3)c1-c1ccc2c(c1)CCN(Cc1cccc(F)c1)C2 [Example 24, (S)-2-(tert-Butoxy)-2-(4-(chroman-6-yl)-5-(2-(3-fluorobenzyl)-1,2,3,4-tetrahydroisoquinolin-6-yl)-2,6-dimethylpyridin-3-yl)acetic Acid]	< 0.1	
Cc1cccc(F)c1CN1CCc2cc(-c3c(C)nc(C)c([C@H](OC(C)(C)C)C(=O)O)c3-c3ccc4c(c3)CCCO4)ccc2C1 [Example 25, (S)-2-(tert-Butoxy)-2-(4-(chroman-6-yl)-5-(2-(2-fluoro-6-methylbenzyl)-1,2,3,4-tetrahydroisoquinolin-6-yl)-2,6-dimethylpyridin-3-yl)acetic Acid]	< 0.1	
Cc1cccc(CN2CCc3cc(-c4c(C)nc(C)c([C@H](OC(C)(C)C)C(=O)O)c4-c4ccc5c(c4)CCCO5)ccc3C2)c1F [Example 26, (S)-2-(tert-Butoxy)-2-(4-(chroman-6-yl)-5-(2-(2-fluoro-3-methylbenzyl)-1,2,3,4-tetrahydroisoquinolin-6-yl)-2,6-dimethylpyridin-3-yl)acetic Acid]	< 0.1	
Cc1nc(C)c([C@H](OC(C)(C)C)C(=O)O)c(-c2ccc3c(c2)CCCO3)c1-c1ccc2c(c1)CCN(Cc1ccccc1Cl)C2 [Example 27, (S)-2-(tert-Butoxy)-2-(5-(2-(2-chlorobenzyl)-1,2,3,4-tetrahydroisoquinolin-6-yl)-4-(chroman-6-yl)-2,6-dimethylpyridin-3-yl)acetic Acid]	< 0.1	0.005
Cc1ccc(CN2CCc3cc(-c4c(C)nc(C)c([C@H](OC(C)(C)C)C(=O)O)c4-c4ccc5c(c4)CCCO5)ccc3C2)c(C)c1 [Example 28, (S)-2-(tert-Butoxy)-2-(4-(chroman-6-yl)-5-(2-(2,4-dimethylbenzyl)-1,2,3,4-tetrahydroisoquinolin-6-yl)-2,6-dimethylpyridin-3-yl)acetic Acid]	< 0.1	
Cc1cccc(Cl)c1CN1CCc2cc(-c3c(C)nc(C)c([C@H](OC(C)(C)C)C(=O)O)c3-c3ccc4c(c3)CCCO4)ccc2C1 [Example 29, (S)-2-(tert-Butoxy)-2-(5-(2-(2-chloro-6-methylbenzyl)-1,2,3,4-tetrahydroisoquinolin-6-yl)-4-(chroman-6-yl)-2,6-dimethylpyridin-3-yl)acetic Acid]	< 0.1	
Cc1nc(C)c([C@H](OC(C)(C)C)C(=O)O)c(-c2ccc3c(c2)CCCO3)c1-c1ccc2c(c1)CCN(CCc1ccccc1F)C2 [Example 30, (S)-2-(tert-Butoxy)-2-(4-(chroman-6-yl)-5-(2-(2-fluorophenethyl)-1,2,3,4-tetrahydroisoquinolin-6-yl)-2,6-dimethylpyridin-3-yl)acetic Acid]	< 0.1	
Cc1nc(C)c([C@H](OC(C)(C)C)C(=O)O)c(-c2ccc3c(c2)CCCO3)c1-c1ccc2c(c1)CCN(CCCc1ccc(F)cc1)C2 [Example 31, (S)-2-(tert-Butoxy)-2-(4-(chroman-6-yl)-5-(2-(3-(4-fluorophenyl)propyl)-1,2,3,4-tetrahydroisoquinolin-6-yl)-2,6-dimethylpyridin-3-yl)acetic Acid]	< 0.1	
Cc1nc(CN(C)CC2CCOCC2)c(-c2ccc3c(c2)CCN(c2ncnc4c2cnn4C)C3)c(-c2ccc3c(c2)CCCO3)c1[C@H](OC(C)(C)C)C(=O)O [Example 32, (S)-2-(tert-Butoxy)-2-(4-(chroman-6-yl)-2-methyl-6-((methyl((tetrahydro-2H-pyran-4-yl)methyl)amino)methyl)-5-(2-(1-methyl-1H-pyrazolo[3,4-d]pyrimidin-4-yl)-1,2,3,4-tetrahydroisoquinolin-6-yl)pyridin-3-yl)acetic Acid]	0.1 to 1	
Cc1cc(N2CCc3cc(-c4c(CN(C)CC5CCOCC5)nc(C)c([C@H](OC(C)(C)C)C(=O)O)c4-c4ccc5c(c4)CCCO5)ccc3C2)ncn1 [Example 33, (S)-2-(tert-Butoxy)-2-(4-(chroman-6-yl)-2-methyl-6-((methyl((tetrahydro-2H-pyran-4-yl)methyl)amino)methyl)-5-(2-(6-methylpyrimidin-4-yl)-1,2,3,4-tetrahydroisoquinolin-6-yl)pyridin-3-yl)acetic Acid]	0.1 to 1	0.282
Cc1cccc(F)c1CN1CCc2cc(-c3c(CN(C)CC4CCOCC4)nc(C)c([C@H](OC(C)(C)C)C(=O)O)c3-c3ccc4c(c3)CCCO4)ccc2C1 [Example 34, (S)-2-(tert-Butoxy)-2-(4-(chroman-6-yl)-5-(2-(2-fluoro-6-methylbenzyl)-1,2,3,4-tetrahydroisoquinolin-6-yl)-2-methyl-6-((methyl((tetrahydro-2H-pyran-4-yl)methyl)amino)methyl)pyridin-3-yl)acetic Acid]	< 0.1	
Cc1cccc(Cl)c1CN1CCc2cc(-c3c(CN(C)CC4CCOCC4)nc(C)c([C@H](OC(C)(C)C)C(=O)O)c3-c3ccc4c(c3)CCCO4)ccc2C1 [Example 35, (S)-2-(tert-Butoxy)-2-(5-(2-(2-chloro-6-methylbenzyl)-1,2,3,4-tetrahydroisoquinolin-6-yl)-4-(chroman-6-yl)-2-methyl-6-((methyl((tetrahydro-2H-pyran-4-yl)methyl)amino)methyl)pyridin-3-yl)acetic Acid]	< 0.1	
Cc1nc(C)c([C@H](OC(C)(C)C)C(=O)O)c(-c2ccc3c(c2)C(F)(F)CCO3)c1-c1ccc(OCCc2ccc(F)cc2)cc1 [Example 36, (S)-2-(tert-Butoxy)-2-(4-(4,4-difluorochroman-6-yl)-5-(4-(4-fluorophenethoxy)phenyl)-2,6-dimethylpyridin-3-yl)acetic Acid]	< 0.1	
Cc1nc(C)c([C@H](OC(C)(C)C)C(=O)O)c(-c2ccc3c(c2)C(F)(F)CCO3)c1-c1ccc2c(c1)CCN(Cc1ccccc1F)C2 [Example 37, (S)-2-(tert-Butoxy)-2-(4-(4,4-difluorochroman-6-yl)-5-(2-(2-fluorobenzyl)-1,2,3,4-tetrahydroisoquinolin-6-yl)-2,6-dimethylpyridin-3-yl)acetic Acid]	< 0.1	
Cc1nc(C)c([C@H](OC(C)(C)C)C(=O)O)c(-c2cc(F)c3c(c2C)CCCO3)c1-c1ccc2c(c1)CCN(Cc1ccccc1F)C2 [Example 38, (2S)-2-(tert-Butoxy)-2-(4-(8-fluoro-5-methylchroman-6-yl)-5-(2-(2-fluorobenzyl)-1,2,3,4-tetrahydroisoquinolin-6-yl)-2,6-dimethylpyridin-3-yl)acetic Acid]	< 0.1	
